Literature values in patent US20250360135A1, “COMPOSITIONS COMPRISING DISODIUM 5,10-METHYLENE-(6R)-TETRAHYDROFOLATE” (MERCK PATENT GMBH, priority 2022, published 2025).

Structure (SMILES): Nc1nc2c(c(=O)[nH]1)N1CN(c3ccc(C(=O)N[C@@H](CCC(=O)O)C(=O)O)cc3)C[C@H]1CN2 [5,10-methylene-(6R,S)-tetrahydrofolic acid]
- purity after 7 hours (after 7 hours): 84%
- normalized purity after 24 hours (after 24 hours): 45%
- degradation rate (loss of purity per hour) (re-constituted lyophilizate, linear regression of stability profile): 2.2 % purity per hour
